The values below come from patent US20120283209A1, “ANTIBACTERIAL AMINOGLYCOSIDE ANALOGS” (Achaogen, Inc., priority 2009, published 2012).

For experiment [1], the system named is AECO001 (E. coli ATCC25922). The experiment can be described thus: MIC assay, CLSI broth microdilution. The experiment is classed as cell-based. The note with it: Escherichia coli, Mueller Hinton Broth, 35 C, 20 hours. How it is done:
(§1) Minimum inhibitory concentrations (MIC) were determined by reference Clinical and Laboratory Standards Institute (CLSI) broth microdilution methods per M7-A7 [2006]. Quality control ranges utilizing E. coli ATCC 25922, P. aeruginosa ATCC 27853 and S. aureus ATCC 29213, and interpretive criteria for comparator agents were as published in CLSI M100-S17 [2007]. Briefly, serial two-fold dilutions of the test compounds were prepared at 2× concentration in Mueller Hinton Broth. The compound dilutions were mixed in 96-well assay plates in a 1:1 ratio with bacterial inoculum. The inoculum was prepared by suspension of a colony from an agar plate that was prepared the previous day. Bacteria were suspended in sterile saline and added to each assay plate to obtain a final concentration of 5×10^5 CFU/mL. The plates were incubated at 35 C for 20 hours in ambient air.
(In broth dilution the organism is exposed to a series of concentrations in liquid medium.)

The test system of experiment [2] is APAE001 (P. aeruginosa ATCC27853). Description: MIC assay, CLSI broth microdilution. The experiment is classed as cell-based. The note with it: Pseudomonas aeruginosa, Mueller Hinton Broth, 35 C, 20 hours. The procedure: as §1

In brackets after ≈: the same amount, converted by molar mass.

In general, MIC refers to the smallest concentration in the dilution series that meets the test's criterion for growth inhibition. Read a low MIC as inhibition by little substance. Consider `NC[C@@H](F)[C@H](O)C(=O)N[C@@H]1C[C@H](N)[C@@H](O[C@H]2O[C@H](CN)[C@@H](O)[C@@H](O)[C@H]2N)[C@H](O[C@@H]2O[C@H](CO)[C@@H](O[C@H]3O[C@@H](CN)[C@@H](O)[C@H](O)[C@H]3N)[C@H]2O)[C@H]1O` [3/3], for which the MIC is 1 to 16 µg/mL (≈ 1.36 to 21.8 µM) in experiment [1] and at most 1 µg/mL in experiment [2].

Consider `NC[C@@H]1O[C@H](O[C@H]2[C@@H](O)[C@H](O[C@@H]3[C@@H](O)[C@H](NC(=O)[C@@H](O)[C@@H](O)CN)C[C@H](N)[C@H]3O[C@H]3O[C@H](CN)[C@@H](O)[C@@H](O)[C@H]3N)O[C@@H]2CO)[C@H](N)[C@@H](O)[C@@H]1O` [2/3], for which the figures for the MIC in experiment [1] and in experiment [2] were 1 to 16 µg/mL (≈ 1.37 to 21.9 µM) and at most 1 µg/mL, respectively.

For the compound `NC[C@@H](O)[C@H](O)C(=O)N[C@@H]1C[C@H](N)[C@@H](O[C@H]2O[C@H](CN)[C@@H](O)[C@@H](O)[C@H]2N)[C@H](O[C@@H]2O[C@H](CO)[C@@H](O[C@H]3O[C@@H](CN)[C@@H](O)[C@H](O)[C@H]3N)[C@H]2O)[C@H]1O` [1/7], the figures for the MIC in experiment [1] and in experiment [2] were 1 to 16 µg/mL (≈ 1.37 to 21.9 µM) and at most 1 µg/mL, respectively.

On to `NC[C@@H]1O[C@H](O[C@H]2[C@@H](O)[C@H](O[C@@H]3[C@@H](O)[C@H](NC(=O)[C@@H](O)C(F)(F)CN)C[C@H](N)[C@H]3O[C@H]3O[C@H](CN)[C@@H](O)[C@@H](O)[C@H]3N)O[C@@H]2CO)[C@H](N)[C@@H](O)[C@@H]1O` [4/3], for which the MIC in experiment [1] is 1 to 16 µg/mL (≈ 1.33 to 21.3 µM); in experiment [2], at most 1 µg/mL.
